Data published in US8258114B2, “Modulation of glucose-6-phosphatase translocase expression” (Isis Pharmaceuticals, Inc., priority 2004, dated 2012).
Oligonucleotides are written 5' to 3', each unit as a sugar letter and its base; * is a phosphorothioate linkage, no mark a phosphodiester; rarer units and linkages stand in square brackets, end groups in braces. Plain capitals give the bases only. e = 2'-O-(2-methoxyethyl) (MOE); [5mC] = 5-methylcytosine; d = 2'-deoxy (DNA)

What was measured:
[1] = tested on: human glucose-6-phosphatase translocase mRNA; assay: Antisense inhibition of human glucose-6-phosphatase translocase mRNA in HepG2 cells (Table 11); assay type: cell-based; parameters: concentration or dose not given beside the values; details: LIPOFECTIN, mRNA by real-time PCR
Method: The human hepatoblastoma cell line HepG2 was obtained from the American Type Culture Collection (Manassas, Va.). HepG2 cells were routinely cultured in Eagle's MEM supplemented with 10% fetal bovine serum, 1 mM non-essential amino acids, and 1 mM sodium pyruvate (Invitrogen Life Technologies, Carlsbad, Calif.). Cells were routinely passaged by trypsinization and dilution when they reached approximately 90% confluence. Multiwell culture plates are prepared for cell culture by coating with a 1:100 dilution of type 1 rat tail collagen (BD Biosciences, Bedford, Mass.) in phosphate-buffered saline. The collagen-containing plates were incubated at 37° C. for approximately 1 hour, after which the collagen was removed and the wells were washed twice with phosphate-buffered saline. Cells were seeded into 96-well plates (Falcon-Primaria #353872, BD Biosciences, Bedford, Mass.) at a density of approximately 8,000 cells/well for use in oligomeric compound transfection experiments.
(§1) When cells reached 65-75% confluency, they were treated with oligonucleotide. Oligonucleotide was mixed with LIPOFECTIN™ Invitrogen Life Technologies, Carlsbad, Calif.) in Opti-MEM™-1 reduced serum medium (Invitrogen Life Technologies, Carlsbad, Calif.) to achieve the desired concentration of oligonucleotide and a LIPOFECTIN™ concentration of 2.5 or 3 μg/mL per 100 nM oligonucleotide. This transfection mixture was incubated at room temperature for approximately 0.5 hours. For cells grown in 96-well plates, wells were washed once with 100 μL OPTI-MEM™-1 and then treated with 130 μL of the transfection mixture. Cells grown in 24-well plates or other standard tissue culture plates are treated similarly, using appropriate volumes of medium and oligonucleotide. Cells are treated and data are obtained in duplicate or triplicate. After approximately 4-7 hours of treatment at 37° C., the medium containing the transfection mixture was replaced with fresh culture medium. Cells were harvested 16-24 hours after oligonucleotide treatment.
(§2) Quantitation of glucose 6-phosphatase translocase mRNA levels was accomplished by real-time quantitative PCR using the ABI PRISM™ 7600, 7700, or 7900 Sequence Detection System (PE-Applied Biosystems, Foster City, Calif.) according to manufacturer's instructions.
(§3) Prior to quantitative PCR analysis, primer-probe sets specific to the target gene being measured were evaluated for their ability to be “multiplexed” with a GAPDH amplification reaction. After isolation the RNA is subjected to sequential reverse transcriptase (RT) reaction and real-time PCR, both of which are performed in the same well. RT and PCR reagents were obtained from Invitrogen Life Technologies (Carlsbad, Calif.). […] The RT reaction was carried out by incubation for 30 minutes at 48° C. Following a 10 minute incubation at 95° C. to activate the PLATINUM® Taq, 40 cycles of a two-step PCR protocol were carried out: 95° C. for 15 seconds (denaturation) followed by 60° C. for 1.5 minutes (annealing/extension).
(§4) Gene target quantities obtained by RT, real-time PCR were normalized using either the expression level of GAPDH, a gene whose expression is constant, or by quantifying total RNA using RiboGreen™ (Molecular Probes, Inc. Eugene, Oreg.). GAPDH expression was quantified by RT, real-time PCR, by being run simultaneously with the target, multiplexing, or separately. Total RNA was quantified using RiboGreen™ RNA quantification reagent (Molecular Probes, Inc. Eugene, Oreg.).
A series of oligomeric compounds was designed to target different regions of human glucose-6-phosphatase translocase, using published sequences cited in Table 1. All compounds in Table 4 are chimeric oligonucleotides (“gapmers”) 20 nucleotides in length, composed of a central “gap” region consisting of 10 2′-deoxynucleotides, which is flanked on both sides (5′ and 3′) by five-nucleotide “wings”. The wings are composed of 2′-O-(2-methoxyethyl) nucleotides, also known as 2′-MOE nucleotides. […]

[2] = tested on: mouse glucose-6-phosphatase translocase mRNA; assay: Antisense inhibition of mouse glucose-6-phosphatase translocase mRNA in primary mouse hepatocytes, 150 nM, LIPOFECTIN (Table 22); assay type: cell-based; details: real-time PCR
Method: Primary mouse hepatocytes were prepared from CD-1 mice purchased from Charles River Labs. Primary mouse hepatocytes were routinely cultured in Hepatocyte Attachment Media supplemented with 10% fetal bovine serum (Invitrogen Life Technologies, Carlsbad, Calif.), 250 nM dexamethasone, and 10 nM bovine insulin (Sigma-Aldrich, St. Louis, Mo.). Cells were seeded into 96-well plates (Falcon-Primaria #353872, BD Biosciences, Bedford, Mass.) at a density of approximately 4,000-6,000 cells/well for use in oligomeric compound transfection experiments.
as §1, §2, §3, §4
A series of oligomeric compounds was designed to target different regions of mouse glucose-6-phosphatase translocase, using published sequences cited in Table 1. All compounds in Table 22 are chimeric oligonucleotides (“gapmers”) 20 nucleotides in length, composed of a central “gap” region consisting of 10 2′-deoxynucleotides, which is flanked on both sides (5′ and 3′) by five-nucleotide “wings”. The wings are composed of 2′-O-(2-methoxyethyl) nucleotides, also known as 2′-MOE nucleotides. The internucleoside (backbone) linkages are phosphorothioate throughout the oligonucleotide. All cytidine residues are 5-methylcytidines. The compounds were analyzed for their effect on gene target mRNA levels by quantitative real-time PCR as described in other examples herein, using the following primer-probe set designed to hybridize to mouse glucose-6-phosphatase translocase: • forward primer: […]

ACCACACACAGTGCCCCAGA (eA*e[5mC]*e[5mC]*eA*e[5mC]*dA*d[5mC]*dA*d[5mC]*dA*dG*dT*dG*d[5mC]*d[5mC]*e[5mC]*e[5mC]*eA*eG*eA; antisense) [ISIS 145670]
% Inhib [1]: 42%
% Inhib of mouse glucose-6-phosphatase translocase mRNA levels [2]: 45%

ACCCAGAAGGCTGTGCTCCA (eA*e[5mC]*e[5mC]*e[5mC]*eA*dG*dA*dA*dG*dG*d[5mC]*dT*dG*dT*dG*e[5mC]*eT*e[5mC]*e[5mC]*eA; antisense) [ISIS 145702]
% Inhib [1]: 74%
% Inhib of mouse glucose-6-phosphatase translocase mRNA levels [2]: 45%

AGGAAGAACTGGCCCCAGTC (eA*eG*eG*eA*eA*dG*dA*dA*d[5mC]*dT*dG*dG*d[5mC]*d[5mC]*d[5mC]*e[5mC]*eA*eG*eT*e[5mC]; antisense) [ISIS 145685]
% Inhib [1]: 71%
% Inhib of mouse glucose-6-phosphatase translocase mRNA levels [2]: 43%

CAGGTTCATGCTGGTTGACA (e[5mC]*eA*eG*eG*eT*dT*d[5mC]*dA*dT*dG*d[5mC]*dT*dG*dG*dT*eT*eG*eA*e[5mC]*eA; antisense) [ISIS 145664]
% Inhib [1]: 66%
% Inhib of mouse glucose-6-phosphatase translocase mRNA levels [2]: 50%

CGCCAGCTGTAGCTCTGGGC (e[5mC]*eG*e[5mC]*e[5mC]*eA*dG*d[5mC]*dT*dG*dT*dA*dG*d[5mC]*dT*d[5mC]*eT*eG*eG*eG*e[5mC]; antisense) [ISIS 145667]
% Inhib [1]: 54%
% Inhib of mouse glucose-6-phosphatase translocase mRNA levels [2]: 49%

CTGCGCCAGCTGTAGCTCTG (e[5mC]*eT*eG*e[5mC]*eG*d[5mC]*d[5mC]*dA*dG*d[5mC]*dT*dG*dT*dA*dG*e[5mC]*eT*e[5mC]*eT*eG; antisense) [ISIS 145668]
% Inhib [1]: 47%
% Inhib of mouse glucose-6-phosphatase translocase mRNA levels [2]: 39%

GAAGGAGACAACCACACACA (eG*eA*eA*eG*eG*dA*dG*dA*d[5mC]*dA*dA*d[5mC]*d[5mC]*dA*d[5mC]*eA*e[5mC]*eA*e[5mC]*eA; antisense) [ISIS 359520]
% Inhib [1]: 42%

GAGAAACCAAATACAGCTCC (eG*eA*eG*eA*eA*dA*d[5mC]*d[5mC]*dA*dA*dA*dT*dA*d[5mC]*dA*eG*e[5mC]*eT*e[5mC]*e[5mC]; antisense) [ISIS 359540]
% Inhib [1]: 92%

GCCACCCAGAAGGCTGTGCT (eG*e[5mC]*e[5mC]*eA*e[5mC]*d[5mC]*d[5mC]*dA*dG*dA*dA*dG*dG*d[5mC]*dT*eG*eT*eG*e[5mC]*eT; antisense) [ISIS 359545]
% Inhib [1]: 65%

GCCCACCAAGTGCCAAACTG (eG*e[5mC]*e[5mC]*e[5mC]*eA*d[5mC]*d[5mC]*dA*dA*dG*dT*dG*d[5mC]*d[5mC]*dA*eA*eA*e[5mC]*eT*eG; antisense) [ISIS 145662]
% Inhib [1]: 52%
% Inhib of mouse glucose-6-phosphatase translocase mRNA levels [2]: 19%

GGAGACAACCACACACAGTG (eG*eG*eA*eG*eA*d[5mC]*dA*dA*d[5mC]*d[5mC]*dA*d[5mC]*dA*d[5mC]*dA*e[5mC]*eA*eG*eT*eG; antisense) [ISIS 145671]
% Inhib [1]: 39%
% Inhib of mouse glucose-6-phosphatase translocase mRNA levels [2]: 25%

GGATAAGGAAGAACTGGCCC (eG*eG*eA*eT*eA*dA*dG*dG*dA*dA*dG*dA*dA*d[5mC]*dT*eG*eG*e[5mC]*e[5mC]*e[5mC]; antisense) [ISIS 145686]
% Inhib [1]: 32%
% Inhib of mouse glucose-6-phosphatase translocase mRNA levels [2]: 26%

GGCATGACAAAGGAGAAGGT (eG*eG*e[5mC]*eA*eT*dG*dA*d[5mC]*dA*dA*dA*dG*dG*dA*dG*eA*eA*eG*eG*eT; antisense) [ISIS 145657]
% Inhib [1]: 43%
% Inhib of mouse glucose-6-phosphatase translocase mRNA levels [2]: 45%

GGTTCATTGTGGATGAGCAG (eG*eG*eT*eT*e[5mC]*dA*dT*dT*dG*dT*dG*dG*dA*dT*dG*eA*eG*e[5mC]*eA*eG; antisense) [ISIS 145673]
% Inhib [1]: 47%
% Inhib of mouse glucose-6-phosphatase translocase mRNA levels [2]: 4%

GTCACTGGTCACTGTTACCC (eG*eT*e[5mC]*eA*e[5mC]*dT*dG*dG*dT*d[5mC]*dA*d[5mC]*dT*dG*dT*eT*eA*e[5mC]*e[5mC]*e[5mC]; antisense) [ISIS 359534]
% Inhib [1]: 75%

GTGCTCTCCTCCTTCAAGGA (eG*eT*eG*e[5mC]*eT*d[5mC]*dT*d[5mC]*d[5mC]*dT*d[5mC]*d[5mC]*dT*dT*d[5mC]*eA*eA*eG*eG*eA; antisense) [ISIS 359527]
% Inhib [1]: 45%

GTGCTGCGCCAGCTGTAGCT (eG*eT*eG*e[5mC]*eT*dG*d[5mC]*dG*d[5mC]*d[5mC]*dA*dG*d[5mC]*dT*dG*eT*eA*eG*e[5mC]*eT; antisense) [ISIS 359517]
% Inhib [1]: 25%

TACCAGGATCCAGAGCTTGG (eT*eA*e[5mC]*e[5mC]*eA*dG*dG*dA*dT*d[5mC]*d[5mC]*dA*dG*dA*dG*e[5mC]*eT*eT*eG*eG; antisense) [ISIS 359535]
% Inhib [1]: 58%

TCACTGTTACCCGGAAGAGG (eT*e[5mC]*eA*e[5mC]*eT*dG*dT*dT*dA*d[5mC]*d[5mC]*d[5mC]*dG*dG*dA*eA*eG*eA*eG*eG; antisense) [ISIS 359532]
% Inhib [1]: 48%

TCCAGCCAGGTTCATGCTGG (eT*e[5mC]*e[5mC]*eA*eG*d[5mC]*d[5mC]*dA*dG*dG*dT*dT*d[5mC]*dA*dT*eG*e[5mC]*eT*eG*eG; antisense) [ISIS 359514]
% Inhib [1]: 37%

TCCCAATACCAGGATCCAGA (eT*e[5mC]*e[5mC]*e[5mC]*eA*dA*dT*dA*d[5mC]*d[5mC]*dA*dG*dG*dA*dT*e[5mC]*e[5mC]*eA*eG*eA; antisense) [ISIS 359536]
% Inhib [1]: 55%

TCCTTCAAGGAGCCCTTCTT (eT*e[5mC]*e[5mC]*eT*eT*d[5mC]*dA*dA*dG*dG*dA*dG*d[5mC]*d[5mC]*d[5mC]*eT*eT*e[5mC]*eT*eT; antisense) [ISIS 359525]
% Inhib [1]: 56%

TCCTTTCTCCTGGATAAGGA (eT*e[5mC]*e[5mC]*eT*eT*dT*d[5mC]*dT*d[5mC]*d[5mC]*dT*dG*dG*dA*dT*eA*eA*eG*eG*eA; antisense) [ISIS 359530]
% Inhib [1]: 59%

TCTCCTCCTTCAAGGAGCCC (eT*e[5mC]*eT*e[5mC]*e[5mC]*dT*d[5mC]*d[5mC]*dT*dT*d[5mC]*dA*dA*dG*dG*eA*eG*e[5mC]*e[5mC]*e[5mC]; antisense) [ISIS 359526]
% Inhib [1]: 54%

TCTCCTGGATAAGGAAGAAC (eT*e[5mC]*eT*e[5mC]*e[5mC]*dT*dG*dG*dA*dT*dA*dA*dG*dG*dA*eA*eG*eA*eA*e[5mC]; antisense) [ISIS 359529]
% Inhib [1]: 15%

TGTAGTGCTTGGCAATGGTG (eT*eG*eT*eA*eG*dT*dG*d[5mC]*dT*dT*dG*dG*d[5mC]*dA*dA*eT*eG*eG*eT*eG; antisense) [ISIS 359544]
% Inhib [1]: 7%

TTACCCGGAAGAGGTACATG (eT*eT*eA*e[5mC]*e[5mC]*d[5mC]*dG*dG*dA*dA*dG*dA*dG*dG*dT*eA*e[5mC]*eA*eT*eG; antisense) [ISIS 359531]
% Inhib [1]: 62%

TTCAGCCACCCAGAAGGCTG (eT*eT*e[5mC]*eA*eG*d[5mC]*d[5mC]*dA*d[5mC]*d[5mC]*d[5mC]*dA*dG*dA*dA*eG*eG*e[5mC]*eT*eG; antisense) [ISIS 359546]
% Inhib [1]: 39%
